According to patent US4588525A, “Prodrug compounds for dermal application” (Molecular Biosystems, Inc., priority 1984, dated 1986):

Key:
[1] = tested on: human lung fibroblasts; assay: Inhibition of growth of human lung fibroblasts in culture; assay type: cell-based; conditions: for IC50: Homo sapiens, Fibroblast, growth inhibition 50%, usually 3-4 days, 10^4 cells/35 mm dish, Coulter counter, read-out: ID50 (the source's name)
Experimental: Drugs were evaluated by their ability to inhibit the growth of human lung fibroblasts in culture. Human lung fibroblasts were grown in Eagle's Minimal Essential Media (EMEM) which contained 10% fetal calf serum, 1X non-essential amino acids, and 250 units penicillin and 250 μg streptomycin/ml. Stock cultures of the cells were grown on 100 mm culture plates. For testing purposes, cells were removed from the stock plates with 3 mls trypsin/versene and after appropriate dilution in the culture medium were plated onto 35 mm dishes. Typically, cells were subcultured at 10^4 cells/35 mm dish in 1.5 mls of medium and allowed to attach for 24 hours before the addition of drugs. Triplicate plates were treated with drugs over a wide concentration range. In some cases, it was necessary to dissolve stock solutions of the drugs with 50% ethanol. In such cases, appropriate controls were included to assure that the ethanol had no adverse effects. In all cases, untreated triplicate control plates were employed in order to determine the cell population at the time of drug addition and at the time of experiment ccmpletion (usual 3-4 days). The number of cells on the test and control plates was determined by first removing the medium by aspiration followed by gentle washing with 1 ml phosphate buffered saline. Trypsin/versene (0.5 ml) was then added and the plates incubated at 37° C. for up to 15 minutes or until the cells became detached. One milliliter of EMEM which contained 1X non-essential amino acids was then added in order to neutralize the action of trypsin. The cells were then diluted into ISOTON II (Curtin Matheson Scientific, Houston, Tex.) and counted on a Coulter counter (Coulter Electronics, Hialeah, Fla.) according to the Coulter counter owner's manual.

[2] = in vivo; cited from earlier work
[3] = tested on: cancer; conditions: use questionable due to the CNS side effects; cited from earlier work
[4] = topical, unless accompanied by oral nicotinamide; cited from earlier work
[5] = tested on: cellular enzymes; assay: Conversion by cellular enzymes to active 6-aminonicotinamide (interpretation of Table A); assay type: cell-based, human
Source text: Such cleavages might be exploited to retain local activity but to eliminate systemic toxicity.

Row | Structure (SMILES) | IC50 [1] [µM] | further results
1 | CCCCCCC(=O)Nc1ccc(C(N)=O)cn1 [N^6 --heptanoyl-6-aminonicotinamide] | 20 | –
2 | NC(=O)c1ccc(NC(=O)CCC(=O)O)nc1 [6-Aminonicotinamide-N^6 --succinic acid, 6-aminonicotinamide-N^6-succinic acid] | 2000 | activity (inhibition of cell growth), in words ([1]; interpretation of Table A): essentially inactive
3 | COC(=O)CCC(=O)Nc1ccc(C(N)=O)cn1 [6-Aminonicotinamide-N^6 --succinate methyl ester] | 20 | –
4 | NC(=O)c1ccc(N)nc1 [6-Aminonicotinamide, 6-aminonicotinamide] | 2 | effectiveness against psoriasis compared with methotrexate [2]: more effective against psoriasis than methotrexate; anti-cancer activity [3]: anti-cancer activity; central nervous system toxicity (CNS) [4]: a central nervous system toxicity (CNS) may result
5 | CCOC(=O)CCCCC(=O)Nc1ccc(C(N)=O)cn1 [6-Aminonicotinamide-N^6 --apidic acid ethyl ester] | 30 | –
6 | CCCCOC(=O)CCC(=O)Nc1ccc(C(N)=O)cn1 [6-Aminonicotinamide-N^6 --succinate butyl ester] | 20 | –
7 | NC(=O)c1ccc(NC(=O)CCC(=O)N2CCCCC2)nc1 [6-Aminonicotinamide-N^6-succinyl piperidate] | – | conversion by cellular enzymes to active 6-aminonicotinamide [5]: readily converted; efficiency of conversion compared with the other alkyl or ester analogues [5]: more efficient
8 | CCCCCCOC(=O)CCC(=O)Nc1ccc(C(N)=O)cn1 [6-Aminonicotinamide-N^6 --succinate hexyl ester] | 20 | –
9 | NC(=O)c1ccc(NC(=O)CCC(=O)N2CCOCC2)nc1 [6-Aminonicotinamide-N^6-succinylmorpholidate] | – | conversion by cellular enzymes to active 6-aminonicotinamide [5]: readily converted; efficiency of conversion compared with the other alkyl or ester analogues [5]: more efficient
10 | CCOC(=O)CCC(=O)Nc1ccc(C(N)=O)cn1 [6-Aminonicotinamide-N^6 --succinate ethyl ester] | 5 | –
